Assay [1] deals with Trypanosoma brucei. In words: Inhibition of Trypanosoma brucei triosephosphate isomerase at 50 uM.
In assay [2] the target is Triosephosphate isomerase, glycosomal (Trypanosoma cruzi) (UniProt P52270). Put plainly: Inhibition of Trypanosoma cruzi triosephosphate isomerase at 50 uM.
Assay [3] has as its system Trypanosoma brucei rhodesiense. Put plainly: Antitrypanosomal activity against Trypanosoma brucei rhodesiense assessed as growth inhibition. The assay is classed as functional. Particulars: read-out: ED50 (the source's name).
Assay [4] concerns Trypanosoma cruzi. Put plainly: Antitrypanosomal activity against epimastigote forms of Trypanosoma cruzi Y assessed as growth inhibition. The assay is classed as functional, organism-based.
Assay [5] has as its system Trypanosoma brucei. Put plainly: Antitrypanosomal activity against bloodstream forms of Trypanosoma brucei assessed as growth inhibition. The assay is classed as functional, organism-based.
A short description of assay [6]: Inhibition of Trypanosoma brucei PTR1. To be noted: read-out: Ki(app).
For another assay, the target named is Cruzipain (Trypanosoma cruzi, UniProt P25779). In words: Inhibition of Trypanosoma cruzi cruzain.
Sequence of Cruzipain (P25779 whole entry): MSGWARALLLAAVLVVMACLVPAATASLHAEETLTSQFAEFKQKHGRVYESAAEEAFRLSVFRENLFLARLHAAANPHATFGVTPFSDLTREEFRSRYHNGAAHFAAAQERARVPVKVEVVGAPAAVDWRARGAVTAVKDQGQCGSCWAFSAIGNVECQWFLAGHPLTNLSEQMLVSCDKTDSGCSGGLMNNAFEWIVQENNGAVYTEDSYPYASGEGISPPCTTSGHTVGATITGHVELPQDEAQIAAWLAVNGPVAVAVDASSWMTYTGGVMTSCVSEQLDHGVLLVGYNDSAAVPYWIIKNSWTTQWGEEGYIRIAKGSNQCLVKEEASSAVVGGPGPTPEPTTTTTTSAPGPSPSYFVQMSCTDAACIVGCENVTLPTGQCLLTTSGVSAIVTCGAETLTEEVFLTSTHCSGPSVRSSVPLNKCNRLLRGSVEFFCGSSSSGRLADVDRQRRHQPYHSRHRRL
In assay [7] the test system is Trypanosoma brucei. Put plainly: Antitrypanosomal activity against Trypanosoma brucei assessed as growth inhibition. The assay is classed as functional, organism-based.
A short description of assay [8]: Selectivity ratio for human triosephosphate isomerase to Trypanosoma cruzi triosephosphate isomerase.
Assay [9] relates to Trypanosoma cruzi. Put plainly: Antitrypanosomal activity against Trypanosoma cruzi assessed as growth inhibition. The assay is classed as functional. Particulars: read-out: ED50 (the source's name).

Sequence of Triosephosphate isomerase, glycosomal (Trypanosoma cruzi) (P52270 whole entry): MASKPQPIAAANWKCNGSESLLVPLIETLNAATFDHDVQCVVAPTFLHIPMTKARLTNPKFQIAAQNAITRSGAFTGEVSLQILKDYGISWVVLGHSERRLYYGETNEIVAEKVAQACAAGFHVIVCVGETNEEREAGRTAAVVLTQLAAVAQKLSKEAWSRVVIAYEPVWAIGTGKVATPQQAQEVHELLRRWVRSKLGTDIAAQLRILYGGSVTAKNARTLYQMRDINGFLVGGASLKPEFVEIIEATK

The term inhibition denotes the share of the control response that was lost under treatment. `Nc1ccc(-c2nc3ccc(-c4ccc5nc(N)sc5c4)cc3s2)cc1`: the inhibition (in the assay with Trypanosoma brucei [1]; in assay [2]) was > 90% in each case.

Turning to `NC(=S)N/N=C(\C=C\c1ccccc1)c1ccccc1`, the EC50 in assay [3] came to 70 nM.

In general, IC50 refers to the concentration that gives 50% inhibition. For `CCC1SC(N/N=C/CCSc2ccccc2)=NC1=O` (configuration not stated), in the assay on Trypanosoma cruzi [4], the IC50 is 300 nM.

As for `CCCOc1cccc2nc(N)n(Cc3ccc(Cl)c(Cl)c3)c12`, the EC50 with Trypanosoma brucei [5] amounted to 10000 nM. The Ki in assay [6] came to 47 nM.

On Cruzipain, `CC1SC(N/N=C/CCCSc2ccccc2)=NC1=O` (configuration not stated) gave an IC50 of 400 nM.

For the molecule `COc1ccccc1C(=O)c1cnc(NC2CCN(C(=O)Nc3ccccc3)CC2)nc1N`, the IC50 with Trypanosoma brucei [7] turned out to be 70 nM.

As to `Cc1ccc(SCC/C=N/NC2=NC(=O)C(C)S2)cc1` (configuration not stated), the midpoint of inhibition on Cruzipain, the IC50, lay at 20400 nM.

`Nc1nc2cccc(-c3ccccc3)c2n1Cc1ccc(Cl)c(Cl)c1`: the Ki in assay [6] came to 7 nM.

As for `Cc1ccc2nc(-c3ccc(N)cc3)sc2c1`, the Selectivity ratio in assay [8] was 200.

Turning to `CCCC/C(=N\NC(N)=S)c1ccccc1`, the EC50 with Trypanosoma cruzi [9] was 3000 nM.
